Data taken from patent US9370570B2, “Polychlorinated biphenyls and squalene-containing adjuvants” (priority 2007, dated 2016).

Experiment: not given
Settings: WHO 2005 TEF values for PCBs in humans; fraction of the toxicity of 2,3,7,8-TCDD dioxin (reference value 1); cited from earlier work

Going from Clc1cc2c(cc1Cl)Oc1cc(Cl)c(Cl)cc1O2 [2,3,7,8-TCDD, reference compound] to Clc1cc(Cl)c(-c2cc(Cl)c(Cl)c(Cl)c2)cc1Cl [PCB #167], the “TEF (toxic equivalency factor)” value falls from 1 to 0.00003.

Compared with Clc1ccc(-c2ccc(Cl)c(Cl)c2)cc1Cl [PCB #77, 3,3′,4,4′-tetrachlorobiphenyl], Clc1ccc(-c2cc(Cl)c(Cl)c(Cl)c2)cc1Cl [PCB #126, 3,3′,4,4′,5-pentachlorobiphenyl] is higher in “TEF (toxic equivalency factor)” value: 0.0001 for the first, 0.1 for the second.

Going from Clc1ccc(-c2cc(Cl)c(Cl)c(Cl)c2)cc1 [PCB #81, 3,4,4′,5-tetrachlorobiphenyl] to Clc1ccc(-c2cc(Cl)c(Cl)c(Cl)c2Cl)cc1 [PCB #114], the “TEF (toxic equivalency factor)” value falls from 0.0003 to 0.00003.

Clc1ccc(-c2ccc(Cl)c(Cl)c2Cl)cc1Cl [PCB #105] and Clc1ccc(-c2cc(Cl)c(Cl)c(Cl)c2Cl)cc1Cl [PCB #156] are the same in “TEF (toxic equivalency factor)” value: 0.00003 for the first, 0.00003 for the second.

Clc1ccc(-c2cc(Cl)c(Cl)cc2Cl)cc1Cl [PCB #118] and Clc1ccc(-c2cc(Cl)c(Cl)c(Cl)c2)c(Cl)c1 [PCB #123] are the same in “TEF (toxic equivalency factor)” value: 0.00003 for the first, 0.00003 for the second.

Clc1cc(-c2ccc(Cl)c(Cl)c2Cl)cc(Cl)c1Cl [PCB #157] and Clc1cc(-c2cc(Cl)c(Cl)c(Cl)c2Cl)cc(Cl)c1Cl [PCB #189] are the same in “TEF (toxic equivalency factor)” value: 0.00003 for the first, 0.00003 for the second.

Going from Clc1cc(-c2cc(Cl)c(Cl)c(Cl)c2)cc(Cl)c1Cl [PCB #169, 3′,4,4′,5,5′-hexachlorobiphenyl] to Clc1cc(Cl)c(-c2cc(Cl)c(Cl)c(Cl)c2Cl)cc1Cl [PCB #180], the “TEF (toxic equivalency factor)” value falls from 0.03 to 0.00001.

Experiment: levels of seven dioxins and ten furans in squalene samples, as TEQs
Settings: WHO 2005 TEFs; + = 1,2,3,4,6,7,8-HpCDD
Procedure: In addition to measuring PCB content, levels of seven dioxins and ten furans were measured. […] TEQs from PCBs, dioxins and furans for these samples were as follows, measured in pg/g according to WHO 2005 TEFs: […]

For CC(C)=CCCC(C)=CCCC(C)=CCCC=C(C)CCC=C(C)CCC=C(C)C [squalene, 2,6,10,15,19,23-hexamethyl-2,6,10,14,18,22-tetracosahexaene], the “TEQ from Dioxins” value was 28.158 ^+ pg/g.
